Where two headings read alike, the source gives them in different places.
What was measured:
[1] = biological target: non-selective α1 receptor from rat cerebral cortex; assay: Binding affinity at non-selective α1 receptor; conditions: for Ki: calculated inhibition constant, in parentheses; for IC50: concentration required to inhibit 50% specific binding
[2] = biological target: T1, human recombinant dopamine D2 receptor (Homo sapiens, UniProt P14416); assay: Binding affinity at dopamine D2 receptor; conditions: for Ki: calculated inhibition constant, in parentheses; for IC50: concentration required to inhibit 50% specific binding
T1 construct: expressed in transfected cells
T1 sequence (P14416 whole entry): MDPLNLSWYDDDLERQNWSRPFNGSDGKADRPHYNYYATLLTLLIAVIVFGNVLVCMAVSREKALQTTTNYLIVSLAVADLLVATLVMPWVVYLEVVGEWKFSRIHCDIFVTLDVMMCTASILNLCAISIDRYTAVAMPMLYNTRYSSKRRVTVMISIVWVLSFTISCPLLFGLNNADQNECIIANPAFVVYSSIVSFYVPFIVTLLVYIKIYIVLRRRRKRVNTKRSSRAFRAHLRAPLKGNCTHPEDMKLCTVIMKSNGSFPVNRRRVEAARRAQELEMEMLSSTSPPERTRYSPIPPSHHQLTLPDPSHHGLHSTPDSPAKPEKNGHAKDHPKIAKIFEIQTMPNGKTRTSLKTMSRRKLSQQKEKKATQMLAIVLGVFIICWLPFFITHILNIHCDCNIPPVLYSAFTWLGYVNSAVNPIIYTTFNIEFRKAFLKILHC

[3] = biological target: T2, human recombinant dopamine D4 receptor (Homo sapiens, UniProt P21917); assay: Binding affinity at dopamine D4 receptor; conditions: for Ki: calculated inhibition constant, in parentheses; for IC50: concentration required to inhibit 50% specific binding
T2 construct: expressed in transfected cells
T2 sequence (P21917 1-419): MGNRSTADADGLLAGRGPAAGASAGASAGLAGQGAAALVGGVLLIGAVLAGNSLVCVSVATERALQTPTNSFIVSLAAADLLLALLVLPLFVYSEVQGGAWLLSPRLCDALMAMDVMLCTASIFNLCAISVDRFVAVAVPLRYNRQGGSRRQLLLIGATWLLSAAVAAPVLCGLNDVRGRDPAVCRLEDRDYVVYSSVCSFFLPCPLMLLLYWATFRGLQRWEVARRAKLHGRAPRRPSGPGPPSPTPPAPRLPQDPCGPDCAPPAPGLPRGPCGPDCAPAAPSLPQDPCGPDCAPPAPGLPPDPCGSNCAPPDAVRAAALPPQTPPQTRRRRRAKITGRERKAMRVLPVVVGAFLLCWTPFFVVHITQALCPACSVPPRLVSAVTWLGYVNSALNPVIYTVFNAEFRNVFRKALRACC

[4] = biological target: T3, human recombinant serotonin 5-HT2A receptor (Homo sapiens, UniProt P28223); assay: Binding affinity at serotonin 5-HT2A receptor; conditions: for selectivity for 5-HT2A receptors versus D2 receptors (in words): conclusion from Table 1; for 5-HT2A Selectivity (D2/5-HT2A): ratio of D2 to 5-HT2A IC50
T3 construct: expressed in transfected cells
T3 sequence (P28223 whole entry): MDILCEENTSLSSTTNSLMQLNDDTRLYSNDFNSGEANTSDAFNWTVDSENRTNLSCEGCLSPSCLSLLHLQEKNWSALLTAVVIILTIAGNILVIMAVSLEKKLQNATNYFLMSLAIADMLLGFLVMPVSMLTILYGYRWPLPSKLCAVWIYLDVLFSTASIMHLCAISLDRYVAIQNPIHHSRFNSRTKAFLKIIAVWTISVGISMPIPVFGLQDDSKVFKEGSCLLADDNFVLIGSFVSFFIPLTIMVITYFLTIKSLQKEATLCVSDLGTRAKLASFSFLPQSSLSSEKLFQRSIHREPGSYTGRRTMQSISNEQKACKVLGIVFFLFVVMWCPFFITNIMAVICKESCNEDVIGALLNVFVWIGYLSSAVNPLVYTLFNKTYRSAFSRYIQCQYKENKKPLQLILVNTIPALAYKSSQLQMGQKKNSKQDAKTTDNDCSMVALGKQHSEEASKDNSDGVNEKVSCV

[5] = calculated inhibition constant, in parentheses, human recombinant, read-out: Ki by Receptor 5-HT2A
[6] = concentration required to inhibit 50% specific binding, human recombinant, read-out: IC50 by Receptor 5-HT2A

| SMILES | Ki [1] [nM] | IC50 [1] [nM] | Ki [2] [nM] | IC50 [2] [nM] | Ki [3] [nM] | IC50 [3] [nM] | Ki [4, 5] [nM] | IC50 [4, 6] [nM] | selectivity for 5-HT2A receptors versus D2 receptors (in words) [4] | 5-HT2A Selectivity (D2/5-HT2A) [4] | IC50 [4] [nM] | Ki [4] [nM] |
| --- | --- | --- | --- | --- | --- | --- | --- | --- | --- | --- | --- | --- |
| O=C1NCCN1CCN1CCC(c2cn(-c3ccc(F)cc3)c3ccc(Cl)cc23)CC1 [Sertindole, 1-[2-[4-[5-chloro-1-(4-fluorophenyl)-1H-indol-3-yl]-1-piperidinyl]ethyl]-2-imidazolidinone, reference compound] | 1.7 | 6.2 |  |  |  |  |  |  |  |  |  |  |
| Fc1ccc(-n2cc(C3=CCNCC3)c3cc(Cl)ccc32)cc1 [Nor, 5-chloro-1-(4-fluorophenyl)-3-(1,2,3 6-tetrahydropvridin-4-yl)indole] | 13 | 49 | 20 | 78 | 333 | 1090 | 11 | 17 | greater selectivity for 5-HT2A receptors than for D2 receptors | 4.6 |  |  |
| COc1cc2nc(N3CCN(C(=O)c4ccco4)CC3)nc(N)c2cc1OC [Prazosin, reference compound] | 0.087 | 0.32 |  |  |  |  |  |  |  |  |  |  |
| O=C1CNC(=O)N1CCN1CCC(c2cn(-c3ccc(F)cc3)c3ccc(Cl)cc23)CC1 [5-Oxo, 1-[2-[4-[5-chloro-1-(4-fluorophenyl)-1H-indol-3-yl]piperidin-1-yl]ethyl]midazolidin-2,5-dione] | 3.3 | 12 | 11 | 44 | 96 | 315 | 11 | 18 | greater selectivity for 5-HT2A receptors than for D2 receptors | 2.4 |  |  |
| Fc1ccc(-n2cc(C3=CCNCC3)c3cc(Cl)ccc32)cc1 [Dehydro-Nor] | 28 | 102 | 8.8 | 34 | 116 | 379 |  |  |  | 1.4 | 25 | 16 |
